Measured values as given in patent publication US20220062278A1, “SMALL MOLECULE INHIBITORS OF THE ANDROGEN RECEPTOR ACTIVITY AND/OR EXPRESSION AND USES THEREOF” (Arizona Board of Regents on Behalf of the Univeristy of …, priority 2018, published 2022).

Biological target: T1, AR (Homo sapiens, UniProt P10275)
T1 sequence (P10275 669-920 limits assumed): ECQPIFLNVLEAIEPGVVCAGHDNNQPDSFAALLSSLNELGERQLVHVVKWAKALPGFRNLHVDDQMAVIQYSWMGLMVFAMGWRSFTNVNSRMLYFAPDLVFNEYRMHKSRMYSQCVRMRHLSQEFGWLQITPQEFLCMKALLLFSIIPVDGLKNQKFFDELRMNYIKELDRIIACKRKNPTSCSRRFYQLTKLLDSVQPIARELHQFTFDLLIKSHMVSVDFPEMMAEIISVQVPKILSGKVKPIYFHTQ
Test: GeneBlazer assay, inhibition against AR activity
Format: cell-based
Conditions: Table II
Text: Tables II, III and IV show % inhibition against AR activity at 10 μm within a GeneBlazer assay, and IC50 values (nM) in GeneBlazer assay.

Compound	inhibition at 10 µM [%]	IC50 [nM]
CCCCn1nnnc1C(c1cccc(O)c1)N1CCN(c2c(Cl)cncc2Cl)CC1 (centres unmarked) [Compound 1, 3-((1-butyl-1H-tetrazol-5-yl)(4-(3,5-dichloropyridin-4-yl)piperazin-1-yl)methyl)phenol]	81.5	45.9
CC(C)(C)n1nnnc1C(c1cc2ccccc2o1)N1CCN(c2c(Cl)cncc2Cl)CC1 (centres unmarked) [Compound 2, 1-(benzofuran-2-yl(1-(tert-butyl)-1H-tetrazol-5-yl)methyl)-4-(3,5-dichloropyridin-4-yl)piperazine]	108	557
CCCCn1nnnc1C(c1ccnc2ccccc12)N1CCN(c2c(Cl)cncc2Cl)CC1 (centres unmarked) [Compound 3, 4-((1-butyl-1H-tetrazol-5-yl)(4-(3,5-dichloropyridin-4-yl)piperazin-1-yl)methyl)quinoline]	110	523
CCCCn1nnnc1C(c1ccccc1)N1CCN(c2c(Cl)cncc2Cl)CC1 (centres unmarked) [Compound 4, 1-((1-butyl-1H-tetrazol-5-yl)(phenyl)methyl)-4-(3,5-dichloropyridin-4-yl)piperazine]	101	
CCCCn1nnnc1CN1CCN(c2c(Cl)cncc2Cl)CC1 [Compound 5, 1-((1-butyl-1H-tetrazol-5-yl)methyl)-4-(3,5-dichloropyridin-4-yl)piperazine]	95.2	1710
CCCCn1nnnc1C(C)N1CCN(c2c(Cl)cncc2Cl)CC1 (centres unmarked) [Compound 6, 1-(1-(1-butyl-1H-tetrazol-5-yl)ethyl)-4-(3,5-dichloropyridin-4-yl)piperazine]	95.3	
CCCCn1nnnc1C(c1cccc(OC)c1)N1CCN(c2c(Cl)cncc2Cl)CC1 (centres unmarked) [Compound 7, 1-((1-butyl-1H-tetrazol-5-yl)(3-methoxyphenyl)methyl)-4-(3,5-dichloropyridin-4-yl)piperazine]	108	
CCCCn1nnnc1C(c1cccc(F)c1)N1CCN(c2c(Cl)cncc2Cl)CC1 (centres unmarked) [Compound 8]	95.3	
CC(C)(C)n1nnnc1C(c1cccs1)N1CCN(c2c(Cl)cncc2Cl)CC1 (centres unmarked) [Compound 9]	104	
CCCCn1nnnc1C(c1cccs1)N1CCN(c2c(Cl)cncc2Cl)CC1 (centres unmarked) [Compound 10, 1-((1-butyl-1H-tetrazol-5-yl)(thiophen-2-yl)methyl)-4-(3,5-dichloropyridin-4-yl)piperazine]	98.2	

Now from value to compound:

inhibition at 10 µM [%]	IC50 [nM]	Compound
98.4		CCCCn1nnnc1C(c1ccc2c(c1)OCO2)N1CCN(c2c(Cl)cncc2Cl)CC1 (centres unmarked) [Compound 11, 1-(benzo[d][1,3]dioxol-5-yl(1-butyl-1H-tetrazol-5-yl)methyl)-4-(3,5-dichloropyridin-4-yl)piperazine]
93.9		CCCCn1nnnc1C(c1ccc2[nH]ccc2c1)N1CCN(c2c(Cl)cncc2Cl)CC1 (centres unmarked) [Compound 12, 5-((1-butyl-1H-tetrazol-5-yl)(4-(3,5-dichloropyridin-4-yl)piperazin-1-yl)methyl)-1H-indole]
86		CC(C)n1nnnc1C(c1cccc(O)c1)N1CCN(c2c(Cl)cncc2Cl)CC1 (centres unmarked) [Compound 15, 3-((4-(3,5-dichloropyridin-4-yl)piperazin-1-yl)(1-isopropyl-1H-tetrazol-5-yl)methyl)phenol]
102		CC(C)(C)n1nnnc1C(c1cccc(O)c1)N1CCN(c2c(Cl)cncc2Cl)CC1 (centres unmarked) [Compound 16, 3-((1-(tert-butyl)-1H-tetrazol-5-yl)(4-(3,5-dichloropyridin-4-yl)piperazin-1-yl)methyl)phenol]
108		Oc1cccc(C(c2nnnn2C2CCCC2)N2CCN(c3c(Cl)cncc3Cl)CC2)c1 (centres unmarked) [Compound 17, 3-((1-cyclopentyl-1H-tetrazol-5-yl)(4-(3,5-dichloropyridin-4-yl)piperazin-1-yl)methyl)phenol]
110		Oc1cccc(C(c2nnnn2C2CCCCC2)N2CCN(c3c(Cl)cncc3Cl)CC2)c1 (centres unmarked) [Compound 18, 3-((1-cyclohexyl-1H-tetrazol-5-yl)(4-(3,5-dichloropyridin-4-yl)piperazin-1-yl)methyl)phenol]
